Reference: US20210128520A1, “NEUROPROTECTIVE ISOFLAVONE COMPOSITIONS AND METHODS” (UNM Rainforest Innovations, priority 2017, published 2021)
“Also recorded” adds a separate entry of the source.

What was measured:
[1] = tested on: primary cultured cortical neurons; test: OGD/RO-induced cell death in primary cultured cortical neurons, LDH release assay; assay type: cell-based, rat; details: 2.5 μM of each isoflavone, pre-treatment, 4 h OGD + 20 h RO
Description: Primary cultured cortical neurons were isolated from embryonic Sprague-Dawley rats (E17). After digested by 0.25% trypsin (Invitrogen Corp., Carlsbad, Calif.), cells were collected and suspended in Dulbecco's modified eagle medium (DMEM) containing 10% horse serum, 1% L-glutamine and antibiotic mixture. The resulting single cell suspensions were seeded on 24-well or 6-well plates pre-treated with poly-D-lysine (Sigma-Aldrich, St. Louis, Mo.). After seeded for four hours, medium was replaced with neurobasal medium containing 2% B27, 1% L-glutamine and antibiotics mixture and cell culture was maintained at 37° C. and 5% CO2.
Both oxygen-glucose deprivation plus reoxygenation (OGD/RO) and excitotoxicity experiments were conducted. In OGD/RO experiments, primary cultured neurons were exposed to neurobasal medium without glucose and incubated in a hypoxia chamber (Billups-Rothenberg, Inc., San Diego, Calif.) perfused with a mixed gas containing 95% N2 and 5% CO2 until medium oxygen concentration reached 0.1%, which was monitored with a PA-10A paramagnetic 02 analyzer (Sable Systems International, North Las Vegas, Nev.). After cells were exposed to OGD at 37° C. for four hours, the medium was replaced with normal glucose-containing medium and the plates were put into normal culture condition for 20 hours for reoxygenation. In excitotoxicity experiments, primary cultured neurons were treated with L-glutamate (8 mM, Sigma-Aldrich, St. Louis, Mo.) for six hours. […]
LDH release assay was performed for detecting cell death with Cytotoxicity Detection Kit (Invitrogen Corp., Carlsbad, Calif.). In brief, culture medium was collected and incubated with the reaction mixture for 30 minutes at room temperature (24° C.). […] The optical density of the solution was measured at 490 nm on a microplate reader (Model 3350, Bio-Rad Laboratories, Inc., Hercules, Calif.). The cell death rate was calculated by using the formula: Cell death rate (%)=(Experimental absorbance value−culture medium absorbance value)/(Triton-X 100-treated absorbance value−culture medium absorbance value)×100%.

[2] = tested on: rat MCAO ischemia-reperfusion model; test: MCAO cerebral ischemia-reperfusion model, infarct volume (TTC) and neurology score; assay type: in vivo; details: for infarct volume in comparison with vehicle group: 20 μmol/kg i.p., single isoflavone; for infarct volume in comparison with vehicle group / infarct volume: 1.5 h MCAO + 22.5 h reperfusion; for neurological function (neurological deficit score) versus vehicle group: 60 μmol/kg i.p.; for infarct volume: 60 μmol/kg i.p. 30 min before MCAO, vehicle 27.93%±7.1%
From the text: Male adult Sprague-Daweley rats (250 g to 270 g) were obtained from Laboratorial Animal Unit, the University of Hong Kong (HKU) and University of New Mexico (UNM). All animal experiments were approved and regulated by the Committee on the Use of Live Animals in Teaching and Research, HKU and the Laboratory Animal Care and Use Committee, UNM. All efforts were made to minimize animal suffering and to reduce the number of animals used.
Rats were subjected to MCAO to induce cerebral ischemia-reperfusion as previously described (Shen et al., 2006. J Neurochem 96(4):1078-1089). Briefly, rats were anaesthetized by inhalation of 5% isoflurane and maintained with 2% isoflurane in a mixture of 70% N2O and 30% 02. After vessels isolation, a 3/0 monofilament nylon suture (Johnson & Johnson Health Care Systems, Inc., Piscataway, N.J.) was inserted into the external carotid artery and advanced into the internal carotid artery and anterior cerebral artery to occlude the middle cerebral artery. After occlusion for 1.5 hours, the suture was removed to induce reperfusion and maintained for 22.5 hours. After operation, rats were transferred to intensive care incubator in which the temperature was kept at 37° C. until animals woke up completely.
Isoflavones (C, F, and D) were dissolved in dimethyl sulfoxide (DMSO) and diluted with peanut oil to the indicated working solution and intraperitoneally (i.p.) injected to rats 30 minutes before suture insertion for MCAO. The same volume of DMSO and peanut oil were used as vehicle control. In parallel experiments, for mechanistic study, ER antagonist ICI 182780 or PI3K inhibitor LY-294002 was intracerebroventricularly (i.c.v.) injected into the rat lateral ventricle 60 minutes before ischemia onset. Briefly, after anaesthetization, rat was placed on a stereotaxic apparatus and fixed well. A 22-gauge, 12 mm stainless-steel guide cannula was inserted in the left lateral ventricle of the brain. The needle was inserted 4.5 mm deep, 1.5 mm lateral to sagiture and 0.8 mm posterior to bregma to reach the lateral ventricle. Then, ICI 182780 dissolved in DMSO (1 μM) or LY-294002 (10 mM) was slowly injected into lateral ventricle and the needle was kept for at least 30 seconds before removal. The same volume of DMSO was used as a negative control.
After 24 hours of reperfusion, rat brains were isolated and sliced into coronal sections followed by staining with 2,3,5-triphenyltetrazolium chloride (TTC, Sigma-Aldrich, St. Louis, Mo.) at 37° C. for 20 minutes. The ischemic area was evaluated by calculating the hemispheric lesion area with ImageJ software (ImageJ-1.38x; Schneider et al., 2012. Nature methods 9(7):671-675), the relative infarct volume percentage (RIVP) was calculated as RIVP=IVA/TA×100%, IVA was the total infract area of five coronal sections, TA was the total area of five sections.
Neurological function was determined by 9-scale methods containing dysfunctional paw test, postural reflex test and circling test according to a previous report (Bederson et al., 1986. Stroke 17(3):472-476). Each score was summed and represented as a single overall neurological score (0 to 8).

[3] = AR extract orally administrated to rats; cited from earlier work

| SMILES | reduction in the rate of cell death as compared to vehicle control, OGD/RO [1] [%] | infarct volume in comparison with vehicle group [2] | infarct volume in comparison with vehicle group ([2]; listed as daidzein) | neurological function (neurological deficit score) versus vehicle group [2] | infarct volume [2] [%] | fraction metabolized into D and its conjugates [3] | effect of ICI 182780 co-treatment on neuroprotective effect on infarct volume ([2]; ICI 182780 i.c.v. 1 h before ischemia, isoflavone i.p. 30 min before ischemia) |
| --- | --- | --- | --- | --- | --- | --- | --- |
| O=c1c(-c2ccc(O)cc2)coc2cc(O)ccc12 [D, daidzein] | 2 | no statistical difference | no significant effect | much improved neurological function | 13.84±0.95 |  |  |
| COc1ccc(-c2coc3cc(O)ccc3c2=O)cc1 [F, formononetin] | 2 | no significant effect |  |  | 10.76±4.21 | about 50% |  |
| COc1ccc(-c2coc3cc(O)ccc3c2=O)cc1O [C, calycosin] | 2 | no statistical difference; also recorded: no significant effect |  | much improved neurological function | 10.99±6.07 |  | partially blocked |
